{"source": "BindingDB's records for patent US9790233", "about": "(Case Western Reserve University, 2017)", "target": "T1, 15-hydroxyprostaglandin dehydrogenase [NAD(+)] (Homo sapiens, UniProt P15428)", "T1 sequence (P15428 whole entry)": "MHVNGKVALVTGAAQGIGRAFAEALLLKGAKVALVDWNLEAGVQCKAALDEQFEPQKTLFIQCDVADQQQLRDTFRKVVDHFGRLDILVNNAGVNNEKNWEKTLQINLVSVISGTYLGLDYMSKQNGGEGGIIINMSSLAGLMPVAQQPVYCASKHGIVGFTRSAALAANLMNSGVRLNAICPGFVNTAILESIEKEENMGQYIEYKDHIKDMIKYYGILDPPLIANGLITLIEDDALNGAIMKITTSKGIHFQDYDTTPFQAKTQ", "test": "In Vitro Assay", "data": [{"smiles": "CCCCC(=O)c1sc2nc(-c3nccs3)ccc2c1N", "note": "[US9790233, ID SW206992]", "values": [{"measurement": "IC50", "value": 1.41, "unit": "nM"}]}]}
